The values below come from paper PMC4000071 (Journal of Toxicologic Pathology, 2014).

Read-outs that look alike come from different tables or passages of the source. Some results are limits rather than exact numbers.

In one series the test system is dogs. The note with it: cited from earlier work.
A further series relates to phospholipidosis (PLD). The series can be described thus: in vitro PLD screen. The series is classed as cell-based. The note with it: read-out: EC50 (phospholipogenic, in vitro).
The subject of the next series is rats. To be noted: cited from earlier work.

Consider `CCCCc1oc2ccccc2c1C(=O)c1cc(I)c(OCCN(CC)CC)c(I)c1` [amiodarone], for which the “corneal microdeposits (incidence)” value in the series with dogs (after 6 weeks) is listed as 1 of 6. Besides, the “alteration in the retina or optic nerve” value in the series on dogs (after 11 weeks of dosing) is “did not cause any alteration in the retina or optic nerve”.
On to `CCN(CC)CCCC(C)Nc1ccnc2cc(Cl)ccc12` (stereo not drawn) [chloroquine], for which, in the series with phospholipidosis (PLD), the EC50 was less than 20 µM.
Take `CN(C)CCCC1(c2ccc(F)cc2)OCc2cc(C#N)ccc21` (stereo not drawn) [citalopram]: the “PLD in nervous tissues” value with rats was “caused PLD in 1 sympathetic ganglion, none or very weak PLD in retinal and trigeminal ganglia, and hypothalamic neurosecretory perikarya”. Also, the PLD entry with dogs is on record as “did not cause PLD”.
`CNCCC(Oc1ccc(C(F)(F)F)cc1)c1ccccc1` (stereo not drawn) [fluoxetine]: in the series with rats, the “PLD in nervous tissues” value is listed as “caused PLD in retinas”; the “PLD-like vacuolation in nerve cells” value is “PLD-like vacuolation in nerve cells in the thalamus, cerebellum, spinal cord and ganglion”. For the same compound, the “neuronal degeneration or neurological findings” value with dogs (after 1 year of dosing) was “no neuronal degeneration or neurological findings were observed”.
As for `CN(C)CCCN1c2ccccc2CCc2ccccc21` [imipramine], the “PLD in nervous tissues” value in the series on rats is “caused PLD in retina and DRG”.
Take `C1CCC(C(CC2CCCCN2)C2CCCCC2)CC1` (stereo not drawn) [perhexiline]: in the series on phospholipidosis (PLD), the EC50 is less than 20 µM.
As for `CC[C@@H]([C@H](C)O)n1ncn(-c2ccc(N3CCN(c4ccc(OC[C@@H]5CO[C@@](Cn6cncn6)(c6ccc(F)cc6F)C5)cc4)CC3)cc2)c1=O` [posaconazole], in the series with dogs (chronic administration), the PLD entry is “caused PLD in DRG and medulla oblongata neurons in the brain”; the “neuronal degeneration or necrosis” value is “no evidence of neuronal degeneration or necrosis”.
